Results on eight compounds are retold here after ChEMBL document CHEMBL1124263 (J Med Chem, 1988).

pKi: −log10 of the molar value.

Experiment [1] has as its target T1, Serotonin 2 (5-HT2) receptor (Rattus norvegicus, UniProt P30994+P08909+P14842). The experiment can be described thus: Ability to displace 0.75 nM [3H]ketanserin in 5-hydroxytryptamine 2 receptor from rat frontal cortex homogenate. The experiment is classed as tissue-based.
Experiment [2] addresses 5-hydroxytryptamine receptor 1B (Rattus norvegicus, UniProt P28564). Put plainly: biochemical.
Experiment [3] has as its target T1, Serotonin 2 (5-HT2) receptor.

Sequence of 5-hydroxytryptamine receptor 1B (P28564 whole entry): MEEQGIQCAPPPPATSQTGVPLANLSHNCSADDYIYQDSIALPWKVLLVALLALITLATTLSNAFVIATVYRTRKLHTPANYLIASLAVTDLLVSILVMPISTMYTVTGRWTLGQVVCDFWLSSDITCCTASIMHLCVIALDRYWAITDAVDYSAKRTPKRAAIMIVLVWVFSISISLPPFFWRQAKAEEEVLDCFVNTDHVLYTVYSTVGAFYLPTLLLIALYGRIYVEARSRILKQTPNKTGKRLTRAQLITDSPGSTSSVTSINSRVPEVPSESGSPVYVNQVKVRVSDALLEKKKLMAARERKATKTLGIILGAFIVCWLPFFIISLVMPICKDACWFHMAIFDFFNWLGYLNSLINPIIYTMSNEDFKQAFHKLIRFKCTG

On to `COc1ccc2c(C[C@H](C)N)c[nH]c2c1`, for which the Ki in experiment [1] was > 10000 nM. Further, in experiment [2], the pKi was 5.14.

Take `COc1ccc2[nH]cc(C[C@H](C)N)c2c1`: the “Log Ki” value in experiment [3] is -6.15. Also, in experiment [2], the negative logarithm of the Ki (pKi) is 6.38.

Regarding `COc1ccc2c(C[C@@H](C)N)c[nH]c2c1`, the inhibition constant (Ki) in experiment [1] is > 10000 nM. The pKi in experiment [2] was 5.67.

Regarding `C[C@H](N)Cc1c[nH]c2cccc(O)c12`, the “Log Ki” value in experiment [3] was -5.21. Also, the pKi in experiment [2] was 5.39.

As to `COc1cccc2[nH]cc(C[C@@H](C)N)c12`, the “Log Ki” value in experiment [3] is -5.84. Also, the pKi in experiment [2] is 6.11.

As for `COc1cccc2[nH]cc(C[C@H](C)N)c12`, in experiment [3], the “Log Ki” value is recorded as -6.02. For the same compound, the pKi in experiment [2] was 5.57.

Take `C[C@@H](N)Cc1c[nH]c2cccc(O)c12`: in experiment [3], the “Log Ki” value is reported as -5.46. In experiment [2], this compound gave a pKi of 5.81.

`COc1ccc2[nH]cc(C[C@@H](C)N)c2c1`: in experiment [3], the “Log Ki” value is -5.89. Also, in experiment [2], the negative logarithm of the Ki (pKi) is 6.42.

A word on the Ki: it is the dissociation constant of the complex between target and ligand, obtained from inhibition or displacement. The term pKi denotes the Ki on a negative log10 scale, so that one unit is a factor of ten.
